Data: US9193731B2, “Antimicrobial compounds and methods of making and using the same” (Melinta Therapeutics, Inc., priority 2009, dated 2015)

System: Escherichia coli strain ATCC25922
Test: standard microdilution assay to determine minimum inhibitory concentrations (MICs)
Type: cell-based
Conditions: Escherichia coli strain ATCC25922, microdilution
In short: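 Broth microdilution MIC against E. coli ATCC25922, following CLSI protocols, typically in a 100 microliter final volume. Results reported as +/− relative to a 16 micrograms/ml cutoff.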

SMILES | E. coli ATCC25922 MIC
N=C(N)NCCCNCc1ccc(-n2cc3cc(-c4ccc(S(=O)(=O)N(CCCc5c[nH]nc5C(F)(F)F)C5CCNCC5)cc4)[nH]c3nc2=O)cc1 [Compound 897] | + (a “+” indicates that the compound has an MIC value of 16 micrograms/ml or less)
CNCc1ccc(-n2cc3cc(-c4ccc(S(=O)(=O)N(CC5COc6ccccc6O5)C5CCNCC5)cc4)[nH]c3nc2=O)cc1 (stereo not shown) [Compound 968] | − (a “−” indicates that the compound has an MIC value greater than 16 micrograms/ml)
N=C(N)NCCCNCc1ccc(-n2cc3cc(-c4cc(CNc5ccc(F)cc5)cc(N5CCNCC5)c4)[nH]c3nc2=O)cc1 [Compound 1060] | + (a “+” indicates that the compound has an MIC value of 16 micrograms/ml or less)
N=C(N)NC[C@H](N)C(=O)NCc1ccc(-n2cc3cc(-c4ccc(S(=O)(=O)NC5CCNCC5)cc4)[nH]c3nc2=O)cc1 [Compound 1228] | + (a “+” indicates that the compound has an MIC value of 16 micrograms/ml or less)
NCCCNCc1ccc(-n2cc3cc(-c4cc(C(=O)N5CCS(=O)(=O)CC5)cc(N5CCNCC5)c4)[nH]c3nc2=O)cc1 [Compound 874] | − (a “−” indicates that the compound has an MIC value greater than 16 micrograms/ml)
N=C(N)NCCCNCc1ccc(-n2cc3cc(-c4cc(C(=O)N(CCO)CCO)cc(N5CCNCC5)c4)[nH]c3nc2=O)cc1 [Compound 895] | + (a “+” indicates that the compound has an MIC value of 16 micrograms/ml or less)
N=C(N)NCCCNCc1ccc(-n2cc3cc(-c4cccc(OC[C@H]5CCNC5)c4)[nH]c3nc2=O)cc1 [Compound 1438] | + (a “+” indicates that the compound has an MIC value of 16 micrograms/ml or less)
NCc1ccc(-n2cc3cc(-c4ccc(S(=O)(=O)N(CCCn5ccc(C(F)(F)F)n5)C5CCNCC5)cc4)[nH]c3nc2=O)cc1 [Compound 1002] | − (a “−” indicates that the compound has an MIC value greater than 16 micrograms/ml)
N=C(N)NCCCNCc1ccc(-n2cc3cc(CCS(=O)(=O)N(CC4CCOCC4)C4CCNCC4)[nH]c3nc2=O)cc1 [Compound 930] | + (a “+” indicates that the compound has an MIC value of 16 micrograms/ml or less)
N=C(N)NCCCNCc1ccc(-n2cc3cc(-c4ccc(S(=O)(=O)N(CC5CC5(F)F)C5CCNCC5)cc4)[nH]c3nc2=O)cc1 (stereo not shown) [Compound 857] | + (a “+” indicates that the compound has an MIC value of 16 micrograms/ml or less)
NCCCCOc1ccc(-c2cn3cc(-c4ccc(S(=O)(=O)NC5CCNCC5)cc4)[nH]c3nc2=O)cc1 [Compound 824] | − (a “−” indicates that the compound has an MIC value greater than 16 micrograms/ml)
CC(CN)CN1CCC(c2cc3cn(-c4ccc(CNCCCNC(=N)N)cc4)c(=O)nc3[nH]2)C1 (mixture of isomers) [Compound 2016a] | + (a “+” indicates that the compound has an MIC value of 16 micrograms/ml or less)
N=C(N)NCCCNCc1ccc(-n2cc3cc(-c4cccc(S(=O)(=O)CCCN)c4)[nH]c3nc2=O)cc1 [Compound 1460] | + (a “+” indicates that the compound has an MIC value of 16 micrograms/ml or less)
CS(=O)(=O)Cc1cc(CCCCN)cc(-c2cc3cn(-c4ccc(CNCCCNC(=N)N)cc4)c(=O)nc3[nH]2)c1 [Compound 2088a] | + (a “+” indicates that the compound has an MIC value of 16 micrograms/ml or less)
CC(N)CCOc1cccc(-c2cc3cn(-c4ccc(CNCCCNC(=N)N)cc4)c(=O)nc3[nH]2)c1 (stereo not shown) [Compound 1440] | + (a “+” indicates that the compound has an MIC value of 16 micrograms/ml or less)
N=C(N)NCCCNC(=O)c1ccc(-n2cc3cc(-c4ccc(S(=O)(=O)CCCNC5CCNC5)cc4)[nH]c3nc2=O)cc1 (stereo not shown) [Compound 1350] | + (a “+” indicates that the compound has an MIC value of 16 micrograms/ml or less)
N=C(N)NCCCNCc1ccc(-n2cc3cc(-c4cccc(OCCC5(N)CCCC5)c4)[nH]c3nc2=O)cc1 [Compound 1447] | + (a “+” indicates that the compound has an MIC value of 16 micrograms/ml or less)
N=C(N)NCCCNCc1ccc(-n2cc3cc(-c4cc(C(=O)Nc5cccc(F)c5)cc(N5CCNCC5)c4)[nH]c3nc2=O)cc1 [Compound 982] | + (a “+” indicates that the compound has an MIC value of 16 micrograms/ml or less)
N=C(N)NCCCCOc1ccc(-c2cn3cc(-c4ccc(C(=O)NC5CCN(C(=N)N)CC5)cc4)[nH]c3nc2=O)cc1 [Compound 848] | + (a “+” indicates that the compound has an MIC value of 16 micrograms/ml or less)
N=C(N)NCCCN1CC=C(n2cc3cc(-c4ccc(S(=O)(=O)N(CC5CC5)C5CCNCC5)cc4)[nH]c3nc2=O)CC1 [Compound 969] | + (a “+” indicates that the compound has an MIC value of 16 micrograms/ml or less)
N=C(N)NCCCNCc1ccc(-n2cc3cc(-c4cncc(CCCCN)c4)[nH]c3nc2=O)cc1 [Compound 2060a] | + (a “+” indicates that the compound has an MIC value of 16 micrograms/ml or less)
COc1cc(-n2cc3cc(-c4cccc(OCC(F)CN)c4)[nH]c3nc2=O)ccc1CNCCCNC(=N)N (stereo not shown) [Compound 1391] | + (a “+” indicates that the compound has an MIC value of 16 micrograms/ml or less)
N=C(N)NCCCNCc1ccc(-n2cc3cc(-c4cc(OCC(F)CN)cc(OC(F)(F)F)c4)[nH]c3nc2=O)cc1 (stereo not shown) [Compound 1463] | + (a “+” indicates that the compound has an MIC value of 16 micrograms/ml or less)

Same assay, conditions: Escherichia coli, ATCC25922, Escherichia coli strain ATCC25922, microdilution; read-out: E. coli ATCC25922 MIC

SMILES | MIC [mg/L]
N=C(N)NCCCCCn1cc2cc(-c3ccc(S(=O)(=O)NC4CCNCC4)cc3)[nH]c2nc1=O [Compound 887] | > 16
NCCCN(CCCN)Cc1ccc(-n2cc3cc(-c4ccc(S(=O)(=O)N(Cc5ccc(SC(F)(F)F)cc5)C5CCNCC5)cc4)[nH]c3nc2=O)cc1 [Compound 236] | < 16
NCc1ccc(-n2cc3cc(-c4cccc(OCCOc5ccc(Cl)cc5)c4)[nH]c3nc2=O)cc1 [Compound 1127] | > 16
NCCCNCc1ccc(-n2cc3cc[nH]c3nc2=O)cc1 [Compound 498] | > 16
N=C(N)NCCCN(CCCN)Cc1ccc(-n2cc3cc(-c4ccc(S(=O)(=O)NC5CCNCC5)cc4)[nH]c3nc2=O)cc1 [Compound 220] | < 16
COCc1cc2cn(-c3ccc(CNCCCN)cc3)c(=O)nc2[nH]1 [Compound 610] | > 16
NCCCNCc1ccc(-n2cc3cc(CCN[C@H]4CCCNC4)[nH]c3nc2=O)cc1 [Compound 816] | < 16
NCCCNCc1ccc(-c2cn3cc(-c4ccc(C(=O)N5CCS(=O)(=O)CC5)cc4)[nH]c3nc2=O)cc1 [Compound 698] | > 16
N=C(N)NCCCNCc1ccc(-n2cc3cc(-c4ccsc4)[nH]c3nc2=O)cc1 [Compound 629] | < 16
NCCCNCc1ccc(-n2cc3cc(CCS(=O)(=O)NC4CCNCC4)[nH]c3nc2=O)cc1 [Compound 881] | < 16
CN1CCN(C(=O)c2ccc(-c3cn4cc(-c5ccc(CNCCCNC(=N)N)cc5)c(=O)nc4[nH]3)cc2)CC1 [Compound 706] | < 16
NCc1ccc(-n2cc3cc(-c4ccc(S(=O)(=O)N(Cc5ccc(Cl)c(Cl)c5)C5CCNCC5)cc4)[nH]c3nc2=O)cc1 [Compound 945] | > 16
NCCCNCc1ccc(-n2cc3cc(CCC4CCCCC4)[nH]c3nc2=O)cc1 [Compound 609] | > 16
CN(CCCOc1cccc(-c2cc3cn(-c4ccc(CNCCCNC(=N)N)cc4)c(=O)nc3[nH]2)c1)C(=O)c1ccccc1 [Compound 1204] | > 16
NCCCNCc1ccc(-n2cc3cc(CCN4CCS(=O)(=O)CC4)[nH]c3nc2=O)cc1 [Compound 784] | > 16
N=C(N)NCCCNCc1ccc(-n2cc3cc(CCN[C@@H]4CCCNC4)[nH]c3nc2=O)cc1 [Compound 815] | < 16

SMILES | MIC [mg/L]
NCCCNCc1ccc(-c2cn3cc(-c4ccc(C(=O)NC5CCOCC5)cc4)[nH]c3nc2=O)cc1 [Compound 799] | > 16
N=C1NCCCN1CCCCCn1cc2cc(-c3ccc(S(=O)(=O)NC4CCNCC4)cc3)[nH]c2nc1=O [Compound 925] | > 16
N=C(N)NCCCN(CCCN)Cc1ccc(-n2cc3cc(-c4ccc(S(=O)(=O)NC5CCNCC5)cc4F)[nH]c3nc2=O)cc1 [Compound 221] | < 16
O=c1nc2[nH]c(-c3ccc(S(=O)(=O)NC4CCNCC4)cc3)cc2cn1-c1cccc(OCc2c[nH]cn2)c1 [Compound 1188] | > 16
CN(Cc1ccccc1)Cc1cc2cn(-c3ccc(CNCCCN)cc3)c(=O)nc2[nH]1 [Compound 905] | > 16
CNCc1ccc(-n2cc3cc(-c4ccc(S(=O)(=O)N(CCCN5CCCCC5C)C5CCNCC5)cc4)[nH]c3nc2=O)cc1 (stereo not shown) [Compound 1039] | > 16
N#CCCCOc1cccc(-c2cc3cn(-c4ccc(CN)cc4)c(=O)nc3[nH]2)c1 [Compound 1151] | > 16
NCCCNCc1ccc(-n2cc3cc(C4=CCCCC4)[nH]c3nc2=O)cc1 [Compound 623] | > 16
N=C(N)NCCCNCc1ccc(-c2cn3cc(-c4ccc(C(=O)NCCCN5CCNCC5)cc4)[nH]c3nc2=O)cc1 [Compound 722] | < 16
NCCCCCN1CCN(c2cn3cc(-c4ccc(S(=O)(=O)N5CCNCC5)cc4)[nH]c3nc2=O)CC1 [Compound 900] | > 16
CNCc1ccc(-n2cc3cc(-c4ccc(S(=O)(=O)N(CCCC5CCCC5)C5CCNCC5)cc4)[nH]c3nc2=O)cc1 [Compound 947] | > 16
NCCCN(CCCN)Cc1ccc(-n2cc3cc(-c4ccc(C(=O)NC5CN6CCC5CC6)cc4)[nH]c3nc2=O)cc1 (stereo not shown) [Compound 196] | < 16
NCCCNCc1ccc(-c2cn3nc(N)[nH]c3nc2=O)cc1 [Compound 647] | > 16
N=C(N)NCCCN(CCCN)Cc1ccc(-n2cc3cc(-c4ccc(C(=O)NC5CCNCC5)cc4)[nH]c3nc2=O)cc1 [Compound 217] | < 16
CN(CCO)C(=O)c1ccc(-c2cn3cc(-c4ccc(CNCCCNC(=N)N)cc4)c(=O)nc3[nH]2)cc1 [Compound 720] | < 16
NCCCN(CCCN)Cc1ccc(-n2cc3cc(-c4ccc(S(=O)(=O)NC5CN6CCC5CC6)cc4)[nH]c3nc2=O)cc1 (stereo not shown) [Compound 201] | < 16
